Consider 34 compounds from US12391660B2, “Heteroaromatic acetamide derivative, and preparation and use thereof” (Hangzhou Westan Pharmaceutical Technology Co., Ltd, priority 2019, dated 2025).

For the assay, the target named is human TRPA1 (Homo sapiens (Human), UniProt O75762). In words: FLIPR assay of inhibitory activity on human TRPA1 (calcium ion flux fluorescence). It is filed as cell-based. The note with it: HEK293 cells stably expressing human TRPA1. The procedure: 1. FLIPR Assay of Inhibitory Activity on Human TRPA1
Sequence of human TRPA1 (O75762 whole entry): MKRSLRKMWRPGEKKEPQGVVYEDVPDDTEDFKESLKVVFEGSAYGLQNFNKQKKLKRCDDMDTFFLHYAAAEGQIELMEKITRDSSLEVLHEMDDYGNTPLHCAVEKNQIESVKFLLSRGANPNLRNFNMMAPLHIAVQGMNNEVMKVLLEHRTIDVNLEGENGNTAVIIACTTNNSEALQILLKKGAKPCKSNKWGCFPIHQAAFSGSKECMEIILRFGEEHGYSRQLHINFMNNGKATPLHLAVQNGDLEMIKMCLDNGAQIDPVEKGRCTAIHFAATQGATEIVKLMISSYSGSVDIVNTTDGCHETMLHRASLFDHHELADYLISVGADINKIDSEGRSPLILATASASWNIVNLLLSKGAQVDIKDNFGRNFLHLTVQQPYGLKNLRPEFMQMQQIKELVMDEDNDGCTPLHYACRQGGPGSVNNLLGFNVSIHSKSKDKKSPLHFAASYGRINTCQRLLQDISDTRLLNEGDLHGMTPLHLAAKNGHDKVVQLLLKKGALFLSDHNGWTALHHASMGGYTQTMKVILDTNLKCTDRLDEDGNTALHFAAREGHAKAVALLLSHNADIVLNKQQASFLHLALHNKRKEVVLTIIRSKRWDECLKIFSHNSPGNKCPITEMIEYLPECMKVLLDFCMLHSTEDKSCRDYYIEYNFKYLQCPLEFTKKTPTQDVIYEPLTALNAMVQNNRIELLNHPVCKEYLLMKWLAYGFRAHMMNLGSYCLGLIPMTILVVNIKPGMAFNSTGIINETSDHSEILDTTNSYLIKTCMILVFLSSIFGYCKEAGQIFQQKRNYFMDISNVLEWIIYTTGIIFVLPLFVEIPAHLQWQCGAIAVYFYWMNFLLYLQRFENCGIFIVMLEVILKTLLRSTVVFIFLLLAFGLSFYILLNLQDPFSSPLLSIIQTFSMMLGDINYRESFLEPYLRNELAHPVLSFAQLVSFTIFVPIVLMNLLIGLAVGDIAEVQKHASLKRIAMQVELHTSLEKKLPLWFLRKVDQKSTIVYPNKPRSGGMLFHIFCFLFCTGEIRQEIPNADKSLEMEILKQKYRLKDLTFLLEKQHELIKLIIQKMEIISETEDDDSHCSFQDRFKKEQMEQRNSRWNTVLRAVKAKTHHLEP
A calcium ion flux fluorescence method (FLIPR assay) was adopted to measure the inhibitory activity of compounds on human TRPA1 channel. The literature reports of Lee and Chen et al. may be referred to for the method [Lee et al. Br J Pharmacol 2008, 153 (8): 1739-1749] [Chen et al. Pain 2011, 152(5):1165-72].
A HEK293 recombinant cell strain stably expressing human TRPA1 (Creative Biogene, NY) was cultured in DMEM (Thermo Fisher Scientific, Shanghai) medium (containing 10% calf serum, 5 μg/ml Blasticidin and 400 ug/ml G418). The incubator was under a condition of 37° C. and air humidity with 5% CO2.
TRPA1 cells were seeded in a 96-well analysis plate at a density of 75,000 cells per well (100 ul/well), and cultured overnight in an incubator at 37° C. and 5% CO2. On the second day, incubation was continued overnight under the same condition to induce the expression of TRPA1 after the culture medium in each well was poured out and a fresh supplement with the same culture medium containing 0.1 μg/ml Tetracycline was added. The further next day, the culture medium was pour out, a DMEM culture solution (also containing 2.5 mM Probenicid) containing 5 μM Fluo-4 AM (Molecular Probes) was added to each well, and incubation was conducted at 37° C. for 1 hour.
The compound was dissolved in 100% DMSO to prepare a 30 mM stock solution which was stored at −20° C. On the day of use, the compound stock solution was thawed at room temperature. Each compound was subjected to 1:5 serial dilution using DMSO medium at a starting concentration of 30 μM with 9 concentration points on a 96-well plate. Each compound was diluted in duplicate for testing. Ruthenium Red was used as the positive control compound and the same dilution was carried out at a starting concentration of 3 μM.
The cell analysis plate was placed in an FLIPR instrument […], and the compound in the compound plate was added to the corresponding hole on the cell analysis plate (First addition) via an automatic program, and the calcium ion fluorescence signal was recorded to determine whether the compound had agonistic activity. After 10 minutes, CaCl2 (Second addition) was added a final concentration of 3 mM to each well to stimulate intracellular calcium flux signals. Ca^++-dependent fluorescence signal was monitored continuously at 538 nm wavelength to analyze the inhibitory activity of the compounds.
The data was collected and analyzed using a FLIPR program. The fluorescence peak value was used to evaluate the inhibitory (or agonistic) activity of the compounds at each concentration. EXCEL and PRISM programs were used to calculate the IC50 value of the compounds.
One may read the IC50 as the midpoint of a concentration-inhibition curve. For `N#Cc1ccc(NC2(C(=O)N3CCC(C4CCCCC4)CC3)CCCC2)cc1` [Compound 35, 4-((1-(4-(cyclohexyl)piperidine-1-carbonyl)cyclopentyl)amino)benzonitrile], the IC50 stood at 85 nM.

For `C#Cc1ccc(NC2(C(=O)N3CCC(C(C)(C)C)CC3)CCCC2)cc1` [Compound 36, 4-((1-(4-(tert-butyl)piperidine-1-carbonyl)cyclopentyl)amino)phenylacetylene], the IC50 is 1250 nM.

In the case of `CC(C)(C)C1CCN(C(=O)C2(Nc3ccc(C#N)cc3)CCC2)CC1` [Compound 37, 4-((1-(4-(tert-butyl)piperidine-1-carbonyl)cyclobutyl)amino) benzonitrile], the IC50 worked out at 5210 nM.

As to `CC(C)(C)C1CCN(C(=O)C2(Nc3ccc(C#N)cc3)CC2)CC1` [Compound 38, 4-((1-(4-(tert-butyl)piperidine-1-carbonyl)cyclopropyl)amino)benzonitrile], the IC50 is 10200 nM.

Regarding `CC(C)(C)C1CCN(C(=O)C2(Nc3nc(C#N)cs3)CCCC2)CC1` [Compound 39, 2-((1-(4-(tert-butyl)piperidine-1-carbonyl)cyclopentyl)amino) thiazole-4-carbonitrile], the IC50 is 1080 nM.

For the compound `CC(C)(C)C1CCN(C(=O)C2(Nc3ncc(C#N)s3)CCCC2)CC1` [Compound 40, 2-((1-(4-(tert-butyl)piperidine-1-carbonyl)cyclopentyl)amino)thiazole-5-carbonitrile], the half-maximal inhibitory concentration (IC50) was found to be 950 nM.

Regarding `CC(C)(C)C1CCN(C(=O)C2(Nc3nc(C#N)co3)CCCC2)CC1` [Compound 41, 2-((1-(4-(tert-butyl)piperidine-1-carbonyl)cyclopentyl)amino) oxazole-4-carbonitrile], the IC50 amounted to 3070 nM.

Turning to `Cn1cc(NC2(C(=O)N3CCC(C(C)(C)C)CC3)CCCC2)nc1C#N` [Compound 42, 4-((1-(4-(tert-butyl)piperidine-1-carbonyl)cyclopentyl)amino) -1-methyl-1H-imidazole-2-carbonitrile], the 50% inhibitory concentration (IC50) is 4650 nM.

On to `CC(C)(C)C1CCN(C(=O)C(Nc2ccc(C#N)cc2)C(C)(C)C)CC1` (stereo not shown) [Compound 43, 4-((1-(4-(tert-butyl)piperidine-1-carbonyl)tert-butyl)amino) benzonitrile], for which the IC50 was found to be 91 nM.

With `CC(C)(C)C1CCN(C(=O)C2(Nc3ccc(C(F)(F)F)cc3)CCCC2)CC1` [Compound 45], the IC50 stood at 72 nM.

With `CC(C)(C)C1CCN(C(=O)C2(Nc3ccc(Cl)cc3)CCCC2)CC1` [Compound 46, 4-((1-(4-(tert-butyl)piperidine-1-carbonyl)cyclopentyl)amino) chlorobenzene], the IC50 was 108 nM.

Consider `N#Cc1ccc(OC2(C(=O)N3CCN(c4cccc(C(F)(F)F)n4)CC3)CCCC2)cc1` [Compound 47, 4-((1-(4-(6-(trifluoromethyl)pyridin-2-yl)piperazine-1-carbonyl)cyclopentyl)oxy)benzonitrile], for which the IC50 came out at 38 nM.

In the case of `Cc1cccc(N2CCN(C(=O)C3(Oc4ccc(C#N)cc4)CCCC3)CC2)c1` [Compound 48, 4-((1-(4-(m-methylphenyl)piperazine-1-carbonyl)cyclopentyl)oxy)benzonitrile], the IC50 stood at 65 nM.

Consider `N#Cc1ccc(OC2(C(=O)N3CCN(c4ccc(C(F)(F)F)cc4)CC3)CCCC2)cc1` [Compound 49], for which the IC50 is 325 nM.

On to `CC(C)(C)C(Oc1ccc(C#N)cc1)C(=O)N1CCN(c2cccc(C(F)(F)F)n2)CC1` (stereo not shown) [Compound 51], for which the IC50 is 182 nM.

As for `N#Cc1ccc(OC2(C(=O)N3CCN(c4ccc(C(F)(F)F)nn4)CC3)CCCC2)cc1` [Compound 52, 4-((1-(4-(6-(trifluoromethyl)pyridazin-3-yl)piperazine-1-carbonyl)cyclopentyl)oxy)ben zonitrile], the IC50 stood at 465 nM.

`O=C(N1CCN(c2ccc(C(F)(F)F)nn2)CC1)C1(Oc2ccc([N+](=O)[O-])cc2)CCCC1` [Compound 53, 4-((1-(4-(6-(trifluoromethyl)pyridazin-3-yl)piperazine-1-carbonyl)cyclopentyl)oxy)nitro benzene]: the IC50 was determined as 862 nM.

On to `N#Cc1ccc(OC2(C(=O)N3CC4CCC3CN4c3cccc(C(F)(F)F)n3)CCCC2)cc1` (stereo not shown) [Compound 55, 4-((1-(5-(6-(trifluoromethyl)pyridin-2-yl)-2,5-diazabicyclo [2.2.2]octane-2-carbonyl)cyclopentyl)oxy)benzonitrile], for which the IC50 worked out at 91 nM.

As to `CC(C)(C)C1CCN(C(=O)C2(Oc3ccc(C#N)cc3)CCCC2)CC1` [Compound 56, 4-((1-(4-(tert-butyl)piperidine-1-carbonyl)cyclopentyl)oxy) benzonitrile], the IC50 turned out to be 76 nM.

Consider `CC(C)(C)N1CCN(C(=O)C2(Oc3ccc(C#N)cc3)CCCC2)CC1` [Compound 57, 4-((1-(4-(tert-butyl)piperazine-1-carbonyl)cyclopentyl)oxy) benzonitrile], for which the 50% inhibitory concentration (IC50) is 51 nM.

In the case of `N#Cc1ccc(OC2(C(=O)N3CCN(c4cccc(C(F)(F)F)n4)CC3)CCC2)cc1` [Compound 58, 4-((1-(4-(6-(trifluoromethyl)pyridin-2-yl)piperazine-1-carbonyl)cyclobutyl)oxy)benzo nitrile], the IC50 worked out at 620 nM.

Turning to `N#Cc1ccc(OC2(C(=O)N3CCN(c4ccc(C(F)(F)F)nn4)CC3)CCCC2)cc1Cl` [Compound 60, 2-chloro-4-((1-(4-(6-(trifluoromethyl)pyridazin-3-yl)piperazine-1-carbonyl)cyclopentyl)oxy)benzonitrile], the IC50 was found to be 847 nM.

With `N#Cc1ccc(OC(C(=O)N2CCN(c3ccc(C(F)(F)F)nn3)CC2)c2ccccc2)cc1` (stereo not shown) [Compound 63], the IC50 was determined as 560 nM.

As to `CC(C)(C)N1CCN(C(=O)C2(Oc3ccc(C(F)(F)F)cc3)CCCC2)CC1` [Compound 64, 4-((1-(4-(tert-butyl)piperazine-1-carbonyl)cyclopentyl)oxy) trifluoromethylbenzene], the IC50 is 552 nM.

For `Cn1cc(C#N)cc1OC1(C(=O)N2CCC(C(C)(C)C)CC2)CCCC1` [Compound 65, 5-((1-(4-(tert-butyl)piperidine-1-carbonyl)cyclopentyl)oxy)-1-methyl-1H-pyrrole-3-car bonitrile], the IC50 is 1080 nM.

Regarding `CC(C)(C)N1CCN(C(=O)C2(Sc3ccc(C#N)cc3)CCCC2)CC1` [Compound 66, 4-((1-(4-(tert-butyl)piperazine-1-carbonyl)cyclopentyl)sul-fanyl)benzonitrile], the IC50 worked out at 105 nM.

On to `Cn1ccc2cc(SC3(C(=O)N4CCC(C(C)(C)C)CC4)CCCC3)ccc21` [Compound 67, 5-((1-(4-(tert-butyl)piperidine-1-carbonyl)cyclopentyl)sulfanyl)-1-methyl-1H-indole], for which the IC50 came to 3780 nM.

As for `N#Cc1ccc2c(c1)CC(C(=O)N1CCN(c3cccc(C(F)(F)F)n3)CC1)N2` (stereo not shown) [Compound 68, 2-(4-(6-(trifluoromethyl)pyridin-2-yl)piperazine-1-carbonyl)-5-cyanoindoline], the IC50 turned out to be 112 nM.

Take `N#Cc1ccc2c(c1)CC(C(=O)N1CCN(c3nccc(C(F)(F)F)n3)CC1)N2` (stereo not shown) [Compound 69, 2-(4-(4-(trifluoromethyl)pyrimidin-2-yl)piperazine-1-carbonyl)-5-cyanoindoline]: the IC50 was found to be 386 nM.

For the compound `N#Cc1ccc2c(c1)CC(C(=O)N1CCN(c3cccc(C(F)(F)F)c3)CC1)N2` (stereo not shown) [Compound 70, 2-(4-(3-(trifluoromethyl)phenyl)piperazine-1-carbonyl)-5-cyanoindoline], the IC50 is 92 nM.

As for `N#Cc1ccc2[nH]c(C(=O)N3CCN(c4cccc(C(F)(F)F)n4)CC3)cc2c1` [Compound 71, 2-(4-(6-(trifluoromethyl)pyridin-2-yl)piperazine-1-carbonyl)-1H-5-cyanoindole], the IC50 stood at 866 nM.

In the case of `N#Cc1ccc2[nH]c(C(=O)N3CCN(c4ccc(C(F)(F)F)cn4)CC3)cc2c1` [Compound 72, 2-(4-(5-(trifluoromethyl)pyridin-2-yl)piperazine-1-carbonyl)-1H-5-cyanoindole], the IC50 was determined as 971 nM.

On to `N#Cc1ccc2c(c1)CC(C(=O)N1CCN(c3cccc(C(F)(F)F)n3)CC1)O2` (stereo not shown) [Compound 73, 2-(4-(6-(trifluoromethyl)pyridin-2-yl)piperazine-1-carbonyl)-2,3-2H-5-cyanobenzofuran], for which the IC50 is 261 nM.

Regarding `O=C(C1Cc2cc(Cl)ccc2O1)N1CCN(c2cccc(C(F)(F)F)n2)CC1` (stereo not shown) [Compound 74, 2-(4-(6-(trifluoromethyl)pyridin-2-yl)piperazine-1-carbonyl)-2,3-2H-5-chlorobenzofuran], the concentration for half-maximal inhibition (IC50) is 116 nM.
